Activity calls are given as the source filed them.
Tests used:
cells [1] = experiment: cells
[2] = growth suppression of beta-catenin-knockout colon cells, dose response, cell-based, HCT116, human colon tumor (AID 1045); format: functional;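 note: HCT116 colon tumor cells with beta catenin knocked out; cells exposed to compound for 60 hours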
[3] = Shn3 3'UTR reporter inhibitors, dose response, cell-based, Clone20 osteoblasts, firefly luciferase, cherry-picked (AID 624132); format: functional;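 note: firefly luciferase luminescence from reporter carrying the Shn3 3'UTR in osteoblasts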
[4] = molecular target: T1, Replicative DNA helicase DnaB (Mycobacterium tuberculosis, UniProt P9WMR3); experiment: DnaB intein splicing inhibitors, dose response, biochemical, cell-free fluorescence (AID 449749); format: functional
T1 sequence (P9WMR3 whole entry): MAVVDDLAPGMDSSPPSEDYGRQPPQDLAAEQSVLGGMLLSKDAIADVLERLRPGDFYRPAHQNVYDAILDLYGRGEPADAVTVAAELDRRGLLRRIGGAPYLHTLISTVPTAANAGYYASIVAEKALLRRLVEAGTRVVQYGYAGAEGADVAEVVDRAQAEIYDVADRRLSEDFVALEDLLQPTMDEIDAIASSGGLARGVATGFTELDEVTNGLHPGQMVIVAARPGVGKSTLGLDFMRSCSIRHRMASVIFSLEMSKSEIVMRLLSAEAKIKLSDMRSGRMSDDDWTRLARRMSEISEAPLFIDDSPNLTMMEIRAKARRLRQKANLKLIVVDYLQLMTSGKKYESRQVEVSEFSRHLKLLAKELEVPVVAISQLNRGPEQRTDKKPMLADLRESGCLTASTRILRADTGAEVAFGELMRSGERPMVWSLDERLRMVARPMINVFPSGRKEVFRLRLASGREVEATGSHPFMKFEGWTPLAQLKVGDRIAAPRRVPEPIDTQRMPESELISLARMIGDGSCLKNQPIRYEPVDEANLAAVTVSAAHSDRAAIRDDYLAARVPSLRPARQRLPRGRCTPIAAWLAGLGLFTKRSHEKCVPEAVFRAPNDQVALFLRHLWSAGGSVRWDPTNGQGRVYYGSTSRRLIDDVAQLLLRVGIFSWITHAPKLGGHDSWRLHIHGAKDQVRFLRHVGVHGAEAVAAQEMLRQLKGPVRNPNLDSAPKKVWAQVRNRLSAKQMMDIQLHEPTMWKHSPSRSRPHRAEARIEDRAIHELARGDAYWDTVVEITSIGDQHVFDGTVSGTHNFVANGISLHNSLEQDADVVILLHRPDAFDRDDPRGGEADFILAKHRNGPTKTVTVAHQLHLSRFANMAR

[5] = cytotoxicity in HPDE-C7 cells, cell-based, fluorescence, HTS (AID 430); format: functional; details: Homo sapiens
cells [6] = format: functional, cell-based
[7] = control 3'UTR Renilla luciferase suppression, dose response, counter-screen for Shn3 inhibitor project, cell-based, Clone20-Shn3RL, cherry-picked (AID 624133); format: functional
[8] = molecular target: Luciferin 4-monooxygenase (Photinus pyralis, UniProt P08659); experiment: Counter Screen for Luciferase-based Assay Positives. [Related pubchem assays: 620, 618, 411 ]
Luciferin 4-monooxygenase, sequence (P08659 whole entry): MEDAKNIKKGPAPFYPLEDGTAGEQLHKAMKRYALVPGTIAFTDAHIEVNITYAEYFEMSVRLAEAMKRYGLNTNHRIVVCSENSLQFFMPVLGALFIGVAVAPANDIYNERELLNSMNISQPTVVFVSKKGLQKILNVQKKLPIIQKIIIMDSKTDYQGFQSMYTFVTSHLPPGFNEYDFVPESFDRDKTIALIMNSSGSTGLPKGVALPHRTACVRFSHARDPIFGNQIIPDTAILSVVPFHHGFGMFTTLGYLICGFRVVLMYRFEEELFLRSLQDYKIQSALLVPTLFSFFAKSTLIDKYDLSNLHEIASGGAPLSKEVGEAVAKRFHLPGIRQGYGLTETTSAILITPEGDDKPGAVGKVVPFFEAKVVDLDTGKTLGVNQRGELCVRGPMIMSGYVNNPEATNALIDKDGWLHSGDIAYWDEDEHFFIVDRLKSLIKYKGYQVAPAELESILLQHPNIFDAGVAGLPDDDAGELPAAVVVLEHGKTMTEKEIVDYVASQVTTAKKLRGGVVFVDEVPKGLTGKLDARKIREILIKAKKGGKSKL

[9] = HepG2 cell cytotoxicity, dose response, cytotoxicity control for Shn3 inhibitor project, CellTiter-Glo, cherry-picked (AID 624134); format: functional, cell-based
cells [10] = format: functional, cell-based; remark: listed apart in the source
[11] = cytotoxicity in KRAS-transformed pancreatic duct cells, primary screen, cell-based, fluorescence, HTS (AID 431); format: functional; details: Homo sapiens;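 note: cell line used: HPDE-C7K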
HT-1080 = experiment: cytotoxicity in HT1080 fibrosarcoma cells, cell-based, fluorescence readout (AID 620); format: functional; details: Homo sapiens
Protein RecA = molecular target: T2, Protein RecA (Mycobacterium tuberculosis, UniProt P9WHJ3); experiment: Fluorescence Cell-Free Homogeneous Dose Retest to Identify Inhibitors of RecA-Intein Splicing Activity. [Related pubchem assays (depositor defined):AID2097, AID2223, AID489010, AID492950]; format: functional
T2 sequence (P9WHJ3 whole entry): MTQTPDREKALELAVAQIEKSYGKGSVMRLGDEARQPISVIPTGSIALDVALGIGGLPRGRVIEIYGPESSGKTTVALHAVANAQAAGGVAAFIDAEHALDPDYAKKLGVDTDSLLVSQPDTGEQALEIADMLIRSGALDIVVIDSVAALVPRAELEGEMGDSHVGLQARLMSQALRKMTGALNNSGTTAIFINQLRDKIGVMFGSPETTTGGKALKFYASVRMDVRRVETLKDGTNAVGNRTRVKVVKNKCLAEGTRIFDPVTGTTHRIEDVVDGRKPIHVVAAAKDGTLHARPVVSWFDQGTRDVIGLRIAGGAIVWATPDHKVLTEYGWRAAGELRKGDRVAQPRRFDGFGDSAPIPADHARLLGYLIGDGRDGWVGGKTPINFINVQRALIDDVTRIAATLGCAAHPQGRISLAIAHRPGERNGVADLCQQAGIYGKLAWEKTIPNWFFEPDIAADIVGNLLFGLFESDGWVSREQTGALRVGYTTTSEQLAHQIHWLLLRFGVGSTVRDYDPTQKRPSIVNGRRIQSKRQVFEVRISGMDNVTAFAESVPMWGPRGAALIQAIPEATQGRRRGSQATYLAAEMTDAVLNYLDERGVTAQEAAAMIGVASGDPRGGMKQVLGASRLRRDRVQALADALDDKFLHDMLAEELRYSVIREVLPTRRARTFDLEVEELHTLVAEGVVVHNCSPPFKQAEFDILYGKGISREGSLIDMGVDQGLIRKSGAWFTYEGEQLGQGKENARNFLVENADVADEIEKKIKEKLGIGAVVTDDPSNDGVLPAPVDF

[12] = growth suppression of PTEN-null colon cells, dose response, cell-based, HCT116 PTEN knockout (AID 1047); format: functional;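 note: HCT116 colon tumor cells with PTEN knocked out; cells exposed to compound for 60 hours before readout; potency for loss of cell viability measured by luminescence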

| Structure (SMILES) | IC50 (cells [1]) | EC50 [2] | AC50 [3] | AC50 [4] | EC50 [5] | EC50 (cells [6]) | AC50 [7] | EC50 [8] | AC50 [9] | EC50 (cells [10]) | EC50 [11] | EC50 (HT-1080) | EC50 (Protein RecA) | EC50 [12] |
| --- | --- | --- | --- | --- | --- | --- | --- | --- | --- | --- | --- | --- | --- | --- |
| COc1ccc(S(=O)(=O)NC(C)(C)C)cc1-c1nnc2c3ccccc3c(C)nn12 | 8.97 µM (active) |  |  |  |  |  |  |  |  |  |  |  |  |  |
| COc1ccccc1-c1cc(C(F)(F)F)nc(S(=O)(=O)CCCC(=O)N2CCOCC2)n1 |  | 34.4 µM (active) | 3.02 µM (active) | 8.15 µM (active) | 9.95 µM (active) | > 350 µM (not active) | 10.2 µM (active) | 4.85 µM (active) | 23.2 µM (active) | > 350 µM (not active) | 6.34 µM (active) | 30.8 µM (active) | 4.26 µM (active) | 19.2 µM (active) |

From ChEMBL document CHEMBL1201862, “PubChem BioAssay data set” (2004)
